The solubility is the dissolved amount per volume that the medium holds. Read a low solubility as little dissolved substance.

The series in a line: Solubility in water (visual, confirmed by HPLC assay of a saturated solution).

For `CN(CCOc1ccc(CC2SC(=O)NC2=O)cc1)c1ccccn1` (centres unmarked) [Benzenesulfonate Form II, 5-[4-[2-(N-Methyl-N-(2-pyridyl)amino)ethoxy]benzyl]thiazolidine-2,4-dione benzenesulfonate Form II], the solubility (water added in aliquots from 1 to 1000ml to approximately 100mg of drug substance, confirmed by HPLC assay of a saturated solution) was determined as 1400 µg/mL. The compound `CN(CCOc1ccc(CC2SC(=O)NC2=O)cc1)c1ccccn1` (centres unmarked) [Benzenesulfonate propan-2-ol solvate, 5-[4-[2-(N-Methyl-N-(2-pyridyl)amino)ethoxy]benzyl]thiazolidine-2,4-dione benzenesulfonate propan-2-ol solvate] came in with a solubility (water) of 1600 µg/mL.

The record behind these values is patent EP1448559B1, “5-(4-(2-(N-METHYL-N-(2-PYRIDYL)AMINO)ETHOXY)BENZYL)THIAZOLIDINE-2,4-DIONE BENZENESULFONATE; PROCESS FOR ITS PREPARATION; POLYMORPHS I, II AND III THEREOF; AND ITS USE AS PHARMACEUTICAL ACTIVE INGREDIENT” (SMITHKLINE BEECHAM PLC, priority 2001, dated 2003).
